From patent US20250270199A1, “THIAZOLE DERIVATIVES AND METHODS OF USING THE SAME” (Arkansas State University - Jonesboro, priority 2022, published 2025)
In brackets after ≈: the same amount, converted by molar mass. Like-named read-outs stand apart in the source and are kept apart here.

Experiments:
[1] = test system: S. aureus ATCC 700699 (Sa 99); assay: MIC, broth microdilution, Sa 99; format: cell-based; conditions: for MIC: Staphylococcus aureus, read-out: Minimum inhibitory concentration (MIC) Sa 99; for Minimum inhibitory concentration (MIC) Sa 99: Table 1, HT series
Experimental: (§1) The broth microdilution method was utilized to determine MIC values of novel thiazole derivatives against different clinically important Gram-positive bacteria according to the guidelines outlined by the Clinical and Laboratory Standards Institute (CLSI) as reported in our recent papers.^1-5 The starting concentration of compounds for MIC determination was 64 μg/mL serially diluted down the wells and the MIC values were recorded in duplicates in three independent experiments on different days.

[2] = test system: S. aureus ATCC 25923 (Sa 23); assay: MIC, broth microdilution, Sa 23; format: cell-based; conditions: for MIC: Staphylococcus aureus, read-out: Minimum inhibitory concentration (MIC) Sa 23; for Minimum inhibitory concentration (MIC) Sa 23: Table 1, HT series
Experimental: as §1

[3] = test system: E. faecalis ATCC 29212 (Efs 12); assay: MIC, broth microdilution, Efs 12; format: cell-based; conditions: for MIC: Enterococcus faecalis, read-out: Minimum inhibitory concentration (MIC) Efs 12; for Minimum inhibitory concentration (MIC) Efs 12: Table 1, HT series
Experimental: as §1

[4] = test system: S. aureus ATCC 33592 (Sa 92); assay: MIC, broth microdilution, Sa 92; format: cell-based; conditions: Staphylococcus aureus, ATCC33592; Table 2, HTM series; read-out: Minimum inhibitory concentration (MIC) Sa 92
Experimental: as §1

[5] = test system: S. aureus ATCC 33591 (Sa 91); assay: MIC, broth microdilution, Sa 91; format: cell-based; conditions: Staphylococcus aureus, ATCC33591; Table 2, HTM series; read-out: Minimum inhibitory concentration (MIC) Sa 91
Experimental: as §1

[6] = test system: E. faecium ATCC 700221 (Efm 21); assay: MIC, broth microdilution, Efm 21; format: cell-based; conditions: Enterococcus faecium, ATCC700221, Table 2, HTM series; read-out: Minimum inhibitory concentration (MIC) Efm 21
Experimental: as §1

[7] = test system: S. aureus subsp. aureus Rosenbach BAA-1717 (Sa USA 300); assay: MIC, broth microdilution, Sa USA 300; format: cell-based; conditions: Staphylococcus aureus; Table 2, HTM series; read-out: Minimum inhibitory concentration (MIC) Sa USA 300
Experimental: as §1

[8] = test system: S. aureus ATCC BAA-2312 (Sa 12); assay: MIC, broth microdilution, Sa 12; format: cell-based; conditions: Staphylococcus aureus, ATCCBAA2312; Table 2, HTM series; read-out: Minimum inhibitory concentration (MIC) Sa 12
Experimental: as §1

[9] = test system: Sa UAMS-1 MRSA ATCC 49230 (Sa UAMS); assay: MIC, broth microdilution, Sa UAMS; format: cell-based, S. aureus; conditions: Staphylococcus aureus; Table 2, HTM series; read-out: Minimum inhibitory concentration (MIC) Sa UAMS-1
Experimental: as §1

[10] = test system: E. faecalis ATCC 51299 (Efs 99); assay: MIC, broth microdilution, Efs 99; format: cell-based; conditions: Enterococcus faecalis, ATCC51299; Table 2, HTM series; read-out: Minimum inhibitory concentration (MIC) Efs 99
Experimental: as §1

[11] = test system: S. aureus subsp. aureus Rosenbach ATCC 25904 (SA Newman); assay: MIC, broth microdilution, SA Newman; format: cell-based; conditions: Staphylococcus aureus; Table 2, HTM series; read-out: Minimum inhibitory concentration (MIC) Sa Newman
Experimental: as §1

[12] = test system: S. epidermidis ATCC 700296 (Se); assay: MIC, broth microdilution, Se; format: cell-based; conditions: Staphylococcus epidermidis, ATCC700296; Table 2, HTM series; read-out: Minimum inhibitory concentration (MIC) Se
Experimental: as §1

[13] = ATCC700699, Table 1, HT series, replicates from different days separated by comma
[14] = replicates from different days separated by comma
[15] = ATCC25923, Table 1, HT series, replicates from different days separated by comma
[16] = ATCC29212, Table 1, HT series, replicates from different days separated by comma
[17] = ATCC700699, Table 2, HTM series

| Compound | MIC [1, 13] | Minimum inhibitory concentration (MIC) Sa 99 [1, 14] | MIC [2, 15] | Minimum inhibitory concentration (MIC) Sa 23 [2, 14] | MIC [3, 16] | Minimum inhibitory concentration (MIC) Efs 12 [3, 14] | MIC [1, 17] | MIC [4] | MIC [5] | MIC [6] | MIC [7] | MIC ([2]; ATCC25923, Table 2, HTM series) | MIC [8] | MIC [9] | MIC [10] | MIC [11] | MIC [12] | MIC ([3]; ATCC29212, Table 2, HTM series) |
| --- | --- | --- | --- | --- | --- | --- | --- | --- | --- | --- | --- | --- | --- | --- | --- | --- | --- | --- |
| COc1ccc(-c2csc(-c3ccc(O)c(O)c3)n2)cc1 [Compound 7, 4-(4-(4-methoxyphenyl)thiazol-2-yl)benzene-1,2-diol] | 32 mg/L (≈ 107 µM) | 32, 32 μg/mL | 16 mg/L (≈ 53.4 µM) | 16, 16 μg/mL | > 32 mg/L | >32, >32 μg/mL | – | – | – | – | – | – | – | – | – | – | – | – |
| Oc1ccc(-c2csc(-c3ccc(C(F)(F)F)cc3)n2)cc1O [Compound 47, 4-{2-[4-(trifluoromethyl)phenyl]-1,3-thiazol-4-yl}benzene-1,2-diol] | – | – | – | – | – | – | 8 mg/L (≈ 23.7 µM) | 8 mg/L (≈ 23.7 µM) | 8 mg/L (≈ 23.7 µM) | 8 mg/L (≈ 23.7 µM) | 8 mg/L (≈ 23.7 µM) | 4 mg/L (≈ 11.9 µM) | 4 mg/L (≈ 11.9 µM) | 8 mg/L (≈ 23.7 µM) | 8 mg/L (≈ 23.7 µM) | 8 mg/L (≈ 23.7 µM) | 8 mg/L (≈ 23.7 µM) | 16 mg/L (≈ 47.4 µM) |
| Oc1ccc(-c2nc(C(F)(F)F)cs2)cc1O [Compound 1, 4-(4-(trifluoromethyl)thiazol-2-yl)benzene-1,2-diol] | > 32 mg/L | >32, >32 μg/mL | > 32 mg/L | >32, >32 μg/mL | > 32 mg/L | >32, >32 μg/mL | – | – | – | – | – | – | – | – | – | – | – | – |
| Oc1ccc(-c2csc(-c3cc(Cl)cc(Cl)c3)n2)cc1 [Compound 43, 4-(2-(3,5-dichlorophenyl)thiazol-4-yl)phenol] | – | – | – | – | – | – | 1 mg/L (≈ 3.1 µM) | 1 mg/L (≈ 3.1 µM) | 1 mg/L (≈ 3.1 µM) | 2 mg/L (≈ 6.21 µM) | 1 mg/L (≈ 3.1 µM) | 1 mg/L (≈ 3.1 µM) | 1 mg/L (≈ 3.1 µM) | 1 mg/L (≈ 3.1 µM) | 2 mg/L (≈ 6.21 µM) | 1 mg/L (≈ 3.1 µM) | 1 mg/L (≈ 3.1 µM) | 2 mg/L (≈ 6.21 µM) |
| O=c1oc2ccccc2cc1-c1csc(-c2ccc(O)c(O)c2)n1 [Compound 17, 3-(2-(3,4-dihydroxyphenyl)thiazol-4-yl)-2H-chromen-2-one] | 16 mg/L (≈ 47.4 µM) | 32 µg/mL (≈ 94.9 µM) | > 32 mg/L | >32, >32 μg/mL | > 32 mg/L | >32, >32 μg/mL | – | – | – | – | – | – | – | – | – | – | – | – |

Further lines, results first:

| MIC [1, 13] | Minimum inhibitory concentration (MIC) Sa 99 [1, 14] | MIC [2, 15] | Minimum inhibitory concentration (MIC) Sa 23 [2, 14] | MIC [3, 16] | Minimum inhibitory concentration (MIC) Efs 12 [3, 14] | MIC [1, 17] | MIC [4] | MIC [5] | MIC [6] | MIC [7] | MIC ([2]; ATCC25923, Table 2, HTM series) | MIC [8] | MIC [9] | MIC [10] | MIC [11] | MIC [12] | MIC ([3]; ATCC29212, Table 2, HTM series) | Compound |
| --- | --- | --- | --- | --- | --- | --- | --- | --- | --- | --- | --- | --- | --- | --- | --- | --- | --- | --- |
| – | – | – | – | – | – | 1 mg/L (≈ 3.1 µM) | 1 mg/L (≈ 3.1 µM) | 1 mg/L (≈ 3.1 µM) | 2 mg/L (≈ 6.21 µM) | 1 mg/L (≈ 3.1 µM) | 1 mg/L (≈ 3.1 µM) | 1 mg/L (≈ 3.1 µM) | 2 mg/L (≈ 6.21 µM) | 2 mg/L (≈ 6.21 µM) | 2 mg/L (≈ 6.21 µM) | 1 mg/L (≈ 3.1 µM) | 2 mg/L (≈ 6.21 µM) | Oc1ccc(-c2csc(-c3ccc(Cl)c(Cl)c3)n2)cc1 [Compound 65, 4-(2-(3,4-dichlorophenyl)thiazol-4-yl)phenol] |
| – | – | – | – | – | – | 4 mg/L (≈ 11.9 µM) | 4 mg/L (≈ 11.9 µM) | 4 mg/L (≈ 11.9 µM) | 8 mg/L (≈ 23.7 µM) | 4 mg/L (≈ 11.9 µM) | 4 mg/L (≈ 11.9 µM) | 4 mg/L (≈ 11.9 µM) | 4 mg/L (≈ 11.9 µM) | 8 mg/L (≈ 23.7 µM) | 4 mg/L (≈ 11.9 µM) | 4 mg/L (≈ 11.9 µM) | 4 mg/L (≈ 11.9 µM) | Oc1ccc(-c2csc(Nc3cc(Cl)ccc3Cl)n2)cc1 [Compound 73, 4-(2-((2,5-dichlorophenyl)amino)thiazol-4-yl)phenol] |
| – | – | – | – | – | – | 1 mg/L (≈ 2.47 µM) | 1 mg/L (≈ 2.47 µM) | 1 mg/L (≈ 2.47 µM) | 1 mg/L (≈ 2.47 µM) | 1 mg/L (≈ 2.47 µM) | 1 mg/L (≈ 2.47 µM) | 1 mg/L (≈ 2.47 µM) | 2 mg/L (≈ 4.95 µM) | 1 mg/L (≈ 2.47 µM) | 1 mg/L (≈ 2.47 µM) | 1 mg/L (≈ 2.47 µM) | 1 mg/L (≈ 2.47 µM) | Oc1ccc(-c2csc(Nc3cc(C(F)(F)F)cc(C(F)(F)F)c3)n2)cc1 [Compound 59, 4-(2-((3,5-bis(trifluoromethyl)phenyl)amino)thiazol-4-yl)phenol] |
| – | – | – | – | – | – | 4 mg/L (≈ 11.3 µM) | 4 mg/L (≈ 11.3 µM) | 8 mg/L (≈ 22.6 µM) | 4 mg/L (≈ 11.3 µM) | 8 mg/L (≈ 22.6 µM) | 4 mg/L (≈ 11.3 µM) | 4 mg/L (≈ 11.3 µM) | 8 mg/L (≈ 22.6 µM) | 8 mg/L (≈ 22.6 µM) | 8 mg/L (≈ 22.6 µM) | 4 mg/L (≈ 11.3 µM) | 8 mg/L (≈ 22.6 µM) | Oc1ccc(-c2csc(Nc3ccc(Cl)c(Cl)c3)n2)cc1O [Compound 74, 4-(2-((3,4-dichlorophenyl)amino)thiazol-4-yl)benzene-1,2-diol] |
